These results are taken from patent US10975043B2, “Heterocyclic compound” (TAKEDA PHARMACEUTICAL COMPANY LIMITED, priority 2014, dated 2021).

The target in assay [1] is T1, RBP4 (Homo sapiens, UniProt P02753). In words: Binding assay by Retinol-RBP4-TTR ELISA. The following applies: 10 μM compound; retinol 50 nM; His-tagged human RBP4, biotinylated human TTR; read-out: human RBP4 binding inhibitory activity (% at 10 μM). Set-up: the culture supernatant containing secreted hRBP4-His was recovered; made in house; host or cells: FreeStyle 293 expression system (Invitrogen), secreted into the culture supernatant. As for the experimental part: Using the Retinol-RBP4-TTR ELISA system shown below, the action of the compound of the present invention to inhibit the binding of RBP4 and retinol and TTR was evaluated.
1F: Binding Assay by Retinol-RBP4-TTR ELISA
This ELISA system detects a complex with RBP4 and TTR based on the retinol dependent binding of RBP4 to TTR.
The His-tagged human RBP4 used was prepared in the above-mentioned 1C.
The biotinylated human TTR used was prepared in the above-mentioned 1E.
Streptavidin (20 μl) (10 μg/ml Streptavidin type II (Wako Pure Chemical Industries, Ltd.), 10 mM Tris-HCl (pH 7.5), 10 mM NaCl) was added to a 384 well blackplate (Nunc MaxiSorp, Thermo Fisher Scientific Inc.), and the plate was centrifuged (1000 rpm, 1 min) and coated at 4° C. overnight. The plate was washed twice with PBST (PBS, 0.05% Tween 20, 100 μl/well), and blocked with 25% Block Ace (Snow Brand Milk Products Co., Ltd., PBS, 100 μl/well). The plate was subjected to centrifugation (1000 rpm, 1 min), and incubated at room temperature for 4 hr or 4° C. overnight. The plate was washed twice with PBST (PBS, 0.05% Tween 20, 100 μl/well), and biotinylated human TTR (stock solution concentration 1.0 mg/ml) diluted 750-fold with PBST was added at […]. The plate was subjected to centrifugation (1000 rpm, 1 min), and further stood at room temperature for 1.5 hr or 4° C. overnight. The plate was washed 3 times with PBST (100 μl/well), and His-tagged human RBP4 (stock solution concentration 1.28 mg/ml) diluted 4000-fold with a reaction buffer (50 mM Tris-HCl, 150 mM NaCl, 0.005% Tween 20, 1 mM DTT, 0.1% BSA) was added at 10 μl/well. The dilution of the compound (200-fold concentration) was prepared with DMSO, and 1.6 μl each was added to a reaction buffer (320 μl) containing retinol (50 nM) (Sigma-Aldrich Co.). A reaction buffer (320 μl) containing retinol and added with DMSO was used as a positive control, and a reaction buffer (320 μl) not containing retinol and added with DMSO was used as a negative control. A mixed solution of retinol and the compound was added to the plate at 15 μl/well. The plate was stirred in a plate mixer, centrifuged (1000 rpm, 1 min), and reacted at room temperature for 2 hr. Anti-His HRP-conjugated antibody (QIAGEN) solution diluted with a reaction buffer was added at 10 μl/well, centrifuged (1000 rpm, 1 min), and reacted at room temperature for 30 min. The plate was washed 3 times with PBST (100 μl/well), SuperSignal ELISA Femto Maximum Sensitivity Substrate reagent (PIERCE, Thermo Fisher Scientific Inc.) was added at 30 μl/well, and the luminescence was measured by a plate reader (Envision).
The binding inhibitory activity of the compound was determined by 100×(positive control value−test compound value)/(positive control value−negative control value).

Assay [2] deals with T2, RBP4 (Mus musculus, UniProt Q00724).
T2 construct: from tissue; host or cells: plasma of male C57BL/6J mice (Japan Charles River)
In words: Blood RBP4-lowering action in C57BL/6J mouse, plasma RBP4 by ELISA. The following applies: mean±SD, n=4 or 5. The format is in vivo. How it is done:
The blood RBP4-lowering action of the compound of the present invention was evaluated using C57BL/6J mouse.
Male 7- to 10-week-old C57BL/6J mice (Japan Charles River) were acclimation reared under free food ingestion conditions on CE-2 solid feed (CLEA Japan, Inc.) for 4 to 6 days, and randomly grouped (4 or 5 per group). On the day of the test, blood samples were collected from the tail vein, and plasma was separated (0 hr value). Thereafter, a test compound (Example 1, 2, 3, 4, 5, 6, 7 or 8) was orally administered at a dose of 3 mg/kg or 10 mg/kg (solvent: 0.5% methylcellulose solution (10 mL/kg)). At 8 and 24 hr after the compound was administered, blood samples were collected from the tail vein and plasma was separated. A 0.5% methylcellulose solution (10 mL/kg) was orally administered to the control group.
The amount of RBP4 in the collected plasma was measured by the ELISA method. Using rabbit anti-mouse RBP4 polyclonal antibody (Hokudo Co., Ltd.), RBP4 was quantified by the following process. A 96 well ELISA plate was coated with 50 μg/mL antibody (100 μL), and stood at 4° C. overnight or at room temperature for 2 hr. After blocking with BlockAce (Dainippon Pharmaceutical Co., Ltd.), 100 μL of mouse RBP4 or sample was added and the plate was stood at room temperature for 2 hr, washed with PBS-0.5% Tween20, added with HRP-labeled anti-RBP4 antibody (prepared by labeling RBP4 polyclonal antibody (Hokudo Co., Ltd.) with HRP (DOJINDO LABORATORIES)) (100 μL), and stood at room temperature for 1 hr. After washing, TMB (Sigma) was added at room temperature for 20 min to allow for color development. The reaction was quenched with 2N sulfuric acid and the absorbance at A450 nm was measured by a platereader. Variation from the initial value of each individual was taken as the relative value to the control group (initial value/control value, %) at each time point. The results are shown below in mean±standard deviation (n=4 or 5).
Background: An ELISA detects its analyte on a solid surface through an enzyme-linked reagent.

The test system of assay [3] is A2E in the eyeball of ABCA4 KO mouse. In words: Suppression of A2E accumulation in the eyeball of ABCA4 KO mouse, A2E by HPLC. The format is in vivo. The settings on record: 8 or 12 weeks. How it is done: The suppressive action for accumulation of retinoid metabolite bis-retinoid N-retinylidene-N-retinylethanolamine (A2E) in the eyeball, of the compound of the present invention, was evaluated using ATP-binding cassette A4 knockout (ABCA4 KO) mouse. A2E is the major constituent component of Lipofuscin in the eyeball, and is involved in the onset and pathology progression in atrophic age-related macular degeneration and Stargardt's disease. ABCA4 KO mouse was confirmed to show remarkable accumulation of A2E, Lipofuscin along with aging, and is known as an animal model of atrophic age-related macular degeneration and Stargardt's disease.
8-Week-old male ABCA4 KO mice were randomly grouped, and 0.5% methylcellulose solution was orally administered to the control group, and 0.5% methylcellulose suspension of a compound at a dose shown in the following Table was orally administered to the test compound group, each once per day at 10 mL/kg. Each group contained 6 or 7 mice. After repetitive administration for 8 or 12 weeks, eyeball was isolated under anesthesia.
In the eyeball, A2E was measured by the HPLC method. A2E reference standard was synthesized from all-trans retinal, ethanolamine in acetic acid-added ethanol. First, 0.3 mL of PBS and zirconia beads were added to the eyeball, and homogenate was prepared using Mixer Mill MM 300 (QIAGEN). A chloroform:methanol (2:1) solution (0.8 mL) was added and the mixture was stirred for […]. The lower layer was separately taken in a different tube, the chloroform:methanol (2:1) solution (0.6 mL) was further added and the mixture was stirred for 5 min. The lower layer was combined with one separated earlier, and dried to solidness by blowing nitrogen gas. 0.05 mL of 85% acetonitrile solution was added and the mixture was stirred to give a measurement sample. For HPLC, Alliance e2695 and Photo diode array 2998 (PDA) (Waters) were used, and Empower 2 was used as an analysis software. The column used was Atlantis dC18 (3 μm, 3.9×150 mm) (Waters), and the column temperature was set to 40° C. […] Quantification was performed at ultraviolet absorbance at 440 nm by PDA.

In assay [4] the target is T1, RBP4. The settings on record: consequently inhibits formation of a complex with TTR; cited from earlier work.
Assay [5] deals with RBP4. The following applies: administration to an animal; cited from earlier work.

Structures are written as SMILES.

Take `O=C(O)COc1cnc(-c2cc(C(F)(F)F)cc(C(F)(F)F)c2)nc1` [Example 1, ((2-(3,5-bis(trifluoromethyl)phenyl)pyrimidin-5-yl)oxy)acetic acid]: the inhibition at 10 µM at RBP4 [1] was 98%. Further, on RBP4 [2] (10 mg/kg single oral dose), the “RBP4 (initial value/control value %) 8 hr later” value amounted to 37.25 ± 11.45% and the “RBP4 (initial value/control value %) 24 hr later” value came out at 61.81 ± 14.79%.

For the molecule `O=C(O)COc1ccc(-c2cc(C(F)(F)F)cc(C(F)(F)F)c2)nc1` [Example 2, ((6-(3,5-bis(trifluoromethyl)phenyl)pyridin-3-yl)oxy)acetic acid], in assay [3] (10 mg/kg oral once per day), the “A2E (% of control value)” value was 77.63 ± 9.06 % of control value. In addition, the inhibition at 10 µM at RBP4 [1] was found to be 99%. In addition, on RBP4 [2] (10 mg/kg single oral dose), the “RBP4 (initial value/control value %) 8 hr later” value was found to be 23.93 ± 5.84% and the “RBP4 (initial value/control value %) 24 hr later” value came to 64.87 ± 16.79%.

For the molecule `O=C(O)CCn1ccc(-c2cc(C(F)(F)F)cc(C(F)(F)F)c2)n1` [Example 3, 3-(3-(3,5-bis(trifluoromethyl)phenyl)-1H-pyrazol-1-yl)propanoic acid], the “A2E (% of control value)” value in assay [3] (10 mg/kg oral once per day) was 73.90 ± 15.58 % of control value. For the same molecule, the inhibition at 10 µM on RBP4 [1] was found to be 100%. At RBP4 [2] (10 mg/kg single oral dose), the “RBP4 (initial value/control value %) 8 hr later” value was determined as 20.70 ± 1.55% and the “RBP4 (initial value/control value %) 24 hr later” value was determined as 49.64 ± 10.48%.

As for `O=C(O)COc1nc(-c2cc(C(F)(F)F)cc(C(F)(F)F)c2)co1` [Example 4, ((4-(3,5-bis(trifluoromethyl)phenyl)-1,3-oxazol-2-yl)oxy)acetic acid], the “A2E (% of control value)” value in assay [3] (1 mg/kg oral once per day) is reported as 79.47 ± 14.53 % of control value. Further, the inhibition at 10 µM on RBP4 [1] came to 100%. For the same molecule, on RBP4 [2] (3 mg/kg single oral dose), the “RBP4 (initial value/control value %) 8 hr later” value is listed as 19.86 ± 11.85% and the “RBP4 (initial value/control value %) 24 hr later” value was found to be 54.29 ± 19.15%.

For the molecule `O=C(O)COc1ccn(-c2cc(C(F)(F)F)cc(C(F)(F)F)c2)n1` [Example 5, ((1-(3,5-bis(trifluoromethyl)phenyl)-1H-pyrazol-3-yl)oxy)acetic acid], the “A2E (% of control value)” value in assay [3] (3 mg/kg oral once per day) was 59.10 ± 10.33 % of control value. Besides, on RBP4 [1], the inhibition at 10 µM was 100%. Besides, on RBP4 [2] (3 mg/kg single oral dose), the “RBP4 (initial value/control value %) 8 hr later” value was 32.14 ± 6.82% and the “RBP4 (initial value/control value %) 24 hr later” value was 36.20 ± 1.87%.

For the molecule `CCOC(=O)COc1cnc(-c2cc(C(F)(F)F)cc(C(F)(F)F)c2)nc1` [Example 6, ethyl 2-((2-(3,5-bis(trifluoromethyl)phenyl)pyrimidin-5-yl)oxy)acetate], at RBP4 [2] (10 mg/kg single oral dose), the “RBP4 (initial value/control value %) 8 hr later” value is 58.17 ± 8.61% and the “RBP4 (initial value/control value %) 24 hr later” value was found to be 79.70 ± 5.22%.

Turning to `COC(=O)COc1ccc(-c2cc(C(F)(F)F)cc(C(F)(F)F)c2)nc1` [Example 7, methyl 2-((6-(3,5-bis(trifluoromethyl)phenyl)pyridin-3-yl)oxy)acetate], at RBP4 [2] (10 mg/kg single oral dose), the “RBP4 (initial value/control value %) 8 hr later” value was 43.66 ± 4.92% and the “RBP4 (initial value/control value %) 24 hr later” value came out at 71.75 ± 8.77%.

On to `CC1=C(/C=C/C(C)=C/C=C/C(C)=C/C(=O)Nc2ccc(O)cc2)C(C)(C)CCC1` [fenretinide, 4-hydroxy(phenyl)retinamide], for which the “binding of RBP4 and retinol” value on RBP4 [4] is “inhibits binding of RBP4 and retinol”. The “blood RBP4” value with RBP4 [5] is recorded as “induces lowering of blood RBP4”.
